Among the test systems are UO-31 renal; T-47D breast; HCT-15 colon; EKVX NSCLC; HOP-92 NSCLC; M19-MEL melanoma; DLD-1 colon; SNB-78 CNS; DMS 114 small cell lung; LXFL 529 NSCLC; XF 498 CNS; DMS 273 small cell lung; KM20L2 colon; HOP-18 NSCLC.
Common to all, as to test: DTP human tumour cell line panel, 48 h

Among the data in PubChem BioAssay (NCI) are TGI and GI50 values, retold here.

The structures appear in SMILES notation.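 96-well plates; 48 h exposure; 5 concentrations. Endpoints by linear interpolation between flanking doses. Not reached: highest tested concentration assigned. GI50 marks 50% less growth. TGI marks complete inhibition of growth.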

The TGI is the concentration at which net growth stops. For `CCOC(=O)[C@@H]1ON2O[C@H](OC3CCCC3(c3ccccc3)c3ccccc3)C[C@H]3OC(=O)[C@@H]1C32` (stereo partly specified), the TGI with UO-31 renal is greater than 100 µM; in the test with T-47D breast it was 80 µM; with HCT-15 colon, greater than 100 µM; in the test with EKVX NSCLC, greater than 100 µM; in the test with HOP-92 NSCLC it was greater than 100 µM.
For the compound `NC1=NN(c2ccccc2)C2(O)c3ccncc3C3=NN(c4ccccc4)C(=O)C132` (stereo unspecified), the TGI in the test on UO-31 renal, in the test with T-47D breast, in the test with HCT-15 colon, in the test with EKVX NSCLC and with HOP-92 NSCLC was greater than 100 µM in each case.
Regarding `COc1ccc(C(c2c[nH]c3ccc(Br)cc23)c2c[nH]c3ccc(Br)cc23)cc1`, the TGI in the test with UO-31 renal was 1.69 µM; with T-47D breast, 2.67 µM; in the test on HCT-15 colon, 0.624 µM; in the test on EKVX NSCLC, 1.49 µM; in the test with HOP-92 NSCLC it was 2.07 µM.
In the same order, the values of `O=C(C[n+]1ccccc1)N=N/C(C(=O)Nc1c(Cl)c(O)c2ccccc2c1O)=C1/C(=O)Oc2cc(O)ccc2C1=O` are 26.3 µM, 32.1 µM, 7.09 µM, 29.3 µM and 48.8 µM.
On the same counts, the results for `Cn1c(NS(=O)(=O)c2ccccc2)nc2ccccc21` are greater than 100 µM, greater than 100 µM, greater than 100 µM, greater than 100 µM and greater than 100 µM.
With `COC(=O)C1[C@@H](C(=O)OC)C12C=Cc1ccccc1C=C2` (stereo partly specified), the TGI in the test on M19-MEL melanoma, in the test with DLD-1 colon, in the test on UO-31 renal, in the test with SNB-78 CNS, in the test with DMS 114 small cell lung and in the test with LXFL 529 NSCLC was greater than 100 µM in each case. For the same compound, the TGI with XF 498 CNS, in the test with HCT-15 colon, in the test on DMS 273 small cell lung, in the test on EKVX NSCLC, with HOP-92 NSCLC and in the test with KM20L2 colon was greater than 100 µM in each case.
Take `CCOP(=O)(OCC)c1ccc(=O)[nH]c1-c1cccs1`: the TGI with UO-31 renal, in the test on T-47D breast, in the test on HCT-15 colon, with EKVX NSCLC and in the test on HOP-92 NSCLC was greater than 100 µM each time.
In general, GI50 refers to the concentration that inhibits growth by half. As to `CCCCCCCCCCCCC(O)C1CCC(C(O)CCCCCCC(O)CCCCCCCC2=CC(C)OC2=O)O1` (stereo unspecified), the GI50 in the test on UO-31 renal is 17 µM; in the test with T-47D breast, 14.8 µM; with EKVX NSCLC it was 23 µM. For the same compound, the TGI with UO-31 renal was 35 µM; in the test with T-47D breast, greater than 100 µM; with HCT-15 colon, greater than 100 µM; with EKVX NSCLC, greater than 100 µM; in the test with HOP-92 NSCLC, 72.1 µM.
For the compound `CCN(CC)C(=S)SNCc1ccc(S(N)(=O)=O)cc1`, the TGI in the test with UO-31 renal amounted to 28.8 µM; in the test on T-47D breast, 47.7 µM; in the test with HCT-15 colon it was 58 µM; in the test with EKVX NSCLC it was 43.5 µM; with HOP-92 NSCLC, 45.7 µM.
In the same order, the values of `COc1cc(NP(=O)(Oc2ccccc2)Oc2ccccc2)ccc1Nc1c2ccccc2nc2c1[nH]c1ccccc12` are 16.6 µM, 12.7 µM, greater than 37.3 µM, 44.9 µM and 3.8 µM.
On to `O=C(c1cccs1)N(C(=S)N1CCN(c2ccccn2)CC1)C1CCCCC1`, for which the TGI with DLD-1 colon, in the test on UO-31 renal, in the test on SNB-78 CNS, with DMS 114 small cell lung, with LXFL 529 NSCLC and with HCT-15 colon was greater than 100 µM each time. Also, the concentration for total growth inhibition (TGI) in the test on HOP-18 NSCLC, in the test on DMS 273 small cell lung, in the test with HOP-92 NSCLC and in the test on KM20L2 colon was greater than 100 µM in each case.
On to `COC(=O)C1=Cc2cc(OC)c(O)cc2[C@@H](c2ccc(O)c(OC)c2)[C@@H]1C(=O)OC`, for which the TGI in the test with UO-31 renal, with T-47D breast, with HCT-15 colon, with EKVX NSCLC and in the test with HOP-92 NSCLC was greater than 100 µM in each case.
For the compound `Fc1ccccc1-c1nn2c(C34CC5CC(CC(C5)C3)C4)nnc2s1`, the TGI with UO-31 renal, in the test with T-47D breast, in the test with HCT-15 colon, in the test with EKVX NSCLC and in the test with HOP-92 NSCLC was greater than 100 µM each time.
In the case of `COc1cc(NCc2ccc3nc(OC)c(OC)nc3c2)cc(OC)c1OC`, the TGI in the test on UO-31 renal, in the test with T-47D breast, in the test on HCT-15 colon, in the test with EKVX NSCLC and in the test with HOP-92 NSCLC was greater than 100 µM each time.
In the case of `O=C(c1ccco1)N(C(=S)N1CCN(c2ccccn2)CC1)C1CCCCC1`, the TGI in the test on M19-MEL melanoma, in the test on DLD-1 colon, in the test on UO-31 renal, in the test with SNB-78 CNS, with DMS 114 small cell lung and in the test on LXFL 529 NSCLC was greater than 100 µM each time. In addition, the TGI in the test with HCT-15 colon, in the test on HOP-18 NSCLC, in the test on DMS 273 small cell lung, in the test on HOP-92 NSCLC and with KM20L2 colon was greater than 100 µM each time.
As for `O=C(CCc1ccc(O)cc1)NCCc1cccc(OCc2ccccc2)c1`, the TGI is 53.9 µM with UO-31 renal; 67.7 µM with T-47D breast; greater than 100 µM in the test on HCT-15 colon; greater than 100 µM in the test with EKVX NSCLC; 70.9 µM in the test with HOP-92 NSCLC.
As for `c1ccc(Nc2nnc(Cn3ccc4ccccc43)s2)cc1`, the concentration for total growth inhibition (TGI) in the test on UO-31 renal, in the test on T-47D breast, in the test on HCT-15 colon, in the test with EKVX NSCLC and in the test on HOP-92 NSCLC was greater than 100 µM each time.
`N#CC(Nc1ccccc1)c1ccc(C(C#N)Nc2ccccc2)cc1` (stereo unspecified): the TGI in the test on UO-31 renal, in the test on T-47D breast, with HCT-15 colon, in the test on EKVX NSCLC and in the test on HOP-92 NSCLC was greater than 100 µM in each case.
`COc1ccc(/C=C2\CCCCCC2=O)cc1`: the TGI with UO-31 renal, in the test with T-47D breast, in the test with HCT-15 colon, in the test on EKVX NSCLC and in the test with HOP-92 NSCLC was greater than 100 µM each time.
